Experimental data as given in PubChem BioAssay AID1963968 (Molecular Pharmacology Branch, DTP, NCI, 2024).

Test system: 945468-187-T-J3-PDC spheroids with HUVEC/MSC, viability
Assay: Anticancer human tumor 945468-187-T-J3-PDC patient-derived rectal carcinoma cell line growth inhibition [PI3K]
Conditions: for IC50: curve of first compound; for viability, T/C: stronger effect = lower value
Summary of the method: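 Spheroid viability read-out. Co-cultures contained the tumor line plus HUVEC and human MSCs. Each agent was paired with a PI3K inhibitor (inavolisib, alpelisib, duvelisib, copanlisib) across half-log dilutions starting at clinical Cmax, or at 10 microM when Cmax was unknown.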

[1] = second compound 0.0316 µM, first compound 0.0316 µM
[2] = second compound 0.0316 µM, first compound 0.1 µM
[3] = second compound 0.0316 µM, first compound 0.316 µM
[4] = second compound 0.0316 µM, first compound 1 µM
[5] = second compound 0.0316 µM, first compound 3.16 µM
[6] = second compound 0.0316 µM, first compound 10 µM
[7] = second compound 0.1 µM, first compound 0.0316 µM
[8] = second compound 0.1 µM, first compound 0.1 µM
[9] = second compound 0.1 µM, first compound 0.316 µM
[10] = second compound 0.1 µM, first compound 1 µM
[11] = second compound 0.1 µM, first compound 3.16 µM
[12] = second compound 0.1 µM, first compound 10 µM
[13] = second compound 0.316 µM, first compound 0.0316 µM
[14] = second compound 0.316 µM, first compound 0.1 µM
[15] = second compound 0.316 µM, first compound 0.316 µM
[16] = second compound 0.316 µM, first compound 1 µM
[17] = second compound 0.316 µM, first compound 3.16 µM
[18] = second compound 0.316 µM, first compound 10 µM
[19] = second compound 1 µM, first compound 0.0316 µM
[20] = second compound 1 µM, first compound 0.1 µM
[21] = second compound 1 µM, first compound 0.316 µM
[22] = second compound 1 µM, first compound 1 µM
[23] = second compound 1 µM, first compound 3.16 µM
[24] = second compound 1 µM, first compound 10 µM
[25] = second compound 3.16 µM, first compound 0.0316 µM
[26] = second compound 3.16 µM, first compound 0.1 µM
[27] = second compound 3.16 µM, first compound 0.316 µM
[28] = second compound 3.16 µM, first compound 1 µM
[29] = second compound 3.16 µM, first compound 3.16 µM
[30] = second compound 3.16 µM, first compound 10 µM
[31] = second compound 10 µM, first compound 0.0316 µM
[32] = second compound 10 µM, first compound 0.1 µM
[33] = second compound 10 µM, first compound 0.316 µM
[34] = second compound 10 µM, first compound 1 µM
[35] = second compound 10 µM, first compound 3.16 µM
[36] = second compound 10 µM, first compound 10 µM
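Note: spheroids exposed to agents for 7 days before viability read.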
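Throughout, for viability, T/C: 100% = DMSO vehicle control viability.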

C=CC(=O)N1CCN(c2nc(=O)n(-c3c(C)ccnc3C(C)C)c3nc(-c4c(O)cccc4F)c(F)cc23)C(C)C1 (centres undefined) + Cc1nc(NC(=O)N2CCCC2C(N)=O)sc1-c1ccnc(C(C)(C)C(F)(F)F)c1
IC50 (second compound 0.0316 µM): > 10 µM | IC50 (second compound 0.1 µM): > 10 µM | IC50 (second compound 0.316 µM): > 10 µM | IC50 (second compound 1 µM): > 10 µM | IC50 (second compound 3.16 µM): > 10 µM | IC50 (second compound 10 µM): > 10 µM | viability, T/C [1]: 106% | viability, T/C [2]: 108% | viability, T/C [3]: 102% | viability, T/C [4]: 108% | viability, T/C [5]: 110% | viability, T/C [6]: 114% | viability, T/C [7]: 108% | viability, T/C [8]: 99.8% | viability, T/C [9]: 103% | viability, T/C [10]: 109% | viability, T/C [11]: 114% | viability, T/C [12]: 99% | viability, T/C [13]: 103% | viability, T/C [14]: 102% | viability, T/C [15]: 100% | viability, T/C [16]: 115% | viability, T/C [17]: 105% | viability, T/C [18]: 98.6% | viability, T/C [19]: 126% | viability, T/C [20]: 118% | viability, T/C [21]: 102% | viability, T/C [22]: 123% | viability, T/C [23]: 122% | viability, T/C [24]: 107% | viability, T/C [25]: 110% | viability, T/C [26]: 109% | viability, T/C [27]: 112% | viability, T/C [28]: 108% | viability, T/C [29]: 113% | viability, T/C [30]: 115% | viability, T/C [31]: 71.1% | viability, T/C [32]: 64.5% | viability, T/C [33]: 58.3% | viability, T/C [34]: 67.5% | viability, T/C [35]: 90.8% | viability, T/C [36]: 79.1%

CC(Cn1ccc(-c2ccc(C#N)c(Cl)c2)n1)NC(=O)c1cc(C(C)O)[nH]n1 (centres undefined) + Cc1nc(NC(=O)N2CCCC2C(N)=O)sc1-c1ccnc(C(C)(C)C(F)(F)F)c1
IC50 (second compound 0.0316 µM): > 10 µM | IC50 (second compound 0.1 µM): > 10 µM | IC50 (second compound 0.316 µM): > 10 µM | IC50 (second compound 1 µM): > 10 µM | IC50 (second compound 3.16 µM): > 10 µM | IC50 (second compound 10 µM): > 10 µM | viability, T/C [1]: 99.7% | viability, T/C [2]: 104% | viability, T/C [3]: 90.9% | viability, T/C [4]: 93.4% | viability, T/C [5]: 102% | viability, T/C [6]: 92.7% | viability, T/C [7]: 106% | viability, T/C [8]: 101% | viability, T/C [9]: 91.9% | viability, T/C [10]: 109% | viability, T/C [11]: 106% | viability, T/C [12]: 96.9% | viability, T/C [13]: 95.6% | viability, T/C [14]: 102% | viability, T/C [15]: 93.8% | viability, T/C [16]: 108% | viability, T/C [17]: 98.8% | viability, T/C [18]: 88.1% | viability, T/C [19]: 112% | viability, T/C [20]: 109% | viability, T/C [21]: 98.1% | viability, T/C [22]: 112% | viability, T/C [23]: 100% | viability, T/C [24]: 98.8% | viability, T/C [25]: 104% | viability, T/C [26]: 102% | viability, T/C [27]: 92.5% | viability, T/C [28]: 91.7% | viability, T/C [29]: 101% | viability, T/C [30]: 104% | viability, T/C [31]: 65.3% | viability, T/C [32]: 58.1% | viability, T/C [33]: 53.7% | viability, T/C [34]: 60.2% | viability, T/C [35]: 54.4% | viability, T/C [36]: 63%
